Measurements from the NIST ThermoML archive (doi:10.1021/je5001507).

Columns and labels:
[1] = refractive index (Na D-line) (dimensionless); conditions: 101.33 kPa, Liquid, Standard Abbe refractometry
[2] = for mass density / electrical conductivity / viscosity: 101.33 kPa, Liquid; for mass density: Vibrating tube method; for surface tension liquid-gas: plate method; for electrical conductivity: Alternating current cell with electrodes

CC(C)C[NH2+]CCCS(=O)(=O)O.O=S(=O)([O-])O [N-isobutyl-3-sulfopropan-1-aminium hydrogen sulfate]
Conditions | electrical conductivity, [2] [S/m] | mass density, [2] [kg/m3] | refractive index, [1] | surface tension liquid-gas, [2] [mN/m] | viscosity, [2] [mPa·s]
293.15 K | – | 1387.92 | 1.50559 | – | –
298.15 K | 0.00856 | – | 1.50436 | 52.18 | –
303.15 K | 0.0145 | 1383.65 | 1.50314 | 51.64 | –
308.15 K | 0.0235 | – | 1.50205 | 51.14 | 14383
313.15 K | 0.0367 | 1377.6 | 1.5008 | 50.69 | 9083
318.15 K | 0.0526 | – | 1.49974 | 50.15 | 5533
323.15 K | 0.0713 | 1371.59 | 1.49851 | 49.58 | 3833
328.15 K | 0.104 | – | 1.49756 | 48.98 | 2867
333.15 K | 0.14 | 1365.64 | 1.4963 | – | 1983
338.15 K | 0.177 | – | – | – | 1333
343.15 K | 0.221 | 1359.71 | – | – | 1033
348.15 K | 0.28 | – | – | – | 766.7
353.15 K | 0.353 | 1353.8 | – | – | 616.7
358.15 K | – | – | – | – | 483.3
363.15 K | – | 1347.97 | – | – | 416.7
368.15 K | – | – | – | – | 333.3
373.15 K | – | – | – | – | 283.3
